Measurements as given in PubChem BioAssay (NCI).
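Five compound concentrations were applied to cells in 96-well plates for 48 hours; endpoints were derived by simple linear interpolation of the resulting dose-response curve. TGI: concentration producing complete growth inhibition.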

Key:
Assay in all cases: NCI-60 cell line screen, 48 h
SNB-19 CNS = test system: SNB-19 CNS
MDA-MB-435 = test system: MDA-MB-435
HCT-15 colon = test system: HCT-15 colon
SR leukemia = test system: SR leukemia
MDA-MB-231 breast = test system: MDA-MB-231 breast
CCRF-CEM leukemia = test system: CCRF-CEM leukemia
DU-145 prostate = test system: DU-145 prostate
UACC-257 melanoma = test system: UACC-257 melanoma
COLO 205 colon = test system: COLO 205 colon
NCI-H226 lung = test system: NCI-H226 lung
BT-549 breast = test system: BT-549 breast
NCI-H460 lung = test system: NCI-H460 lung
RPMI-8226 leukemia = test system: RPMI-8226 leukemia
SK-MEL-28 melanoma = test system: SK-MEL-28 melanoma
CAKI-1 renal = test system: CAKI-1 renal
HCT-116 colon = test system: HCT-116 colon
MDA-N = test system: MDA-N
786-0 renal = test system: 786-0 renal
NCI-H23 lung = test system: NCI-H23 lung
SF-268 CNS = test system: SF-268 CNS
LOX IMVI melanoma = test system: LOX IMVI melanoma
U251 CNS = test system: U251 CNS
HCC-2998 colon = test system: HCC-2998 colon
OVCAR-8 ovarian = test system: OVCAR-8 ovarian
T-47D breast = test system: T-47D breast
UACC-62 melanoma = test system: UACC-62 melanoma
SN12C renal = test system: SN12C renal
UO-31 renal = test system: UO-31 renal
TK-10 renal = test system: TK-10 renal
HOP-92 NSCLC = test system: HOP-92 NSCLC
OVCAR-4 ovarian = test system: OVCAR-4 ovarian
SNB-75 CNS = test system: SNB-75 CNS
ACHN renal = test system: ACHN renal
NCI/ADR-RES ovarian = test system: NCI/ADR-RES ovarian
KM12 colon = test system: KM12 colon
HS 578T breast = test system: HS 578T breast
EKVX NSCLC = test system: EKVX NSCLC
SW-620 colon = test system: SW-620 colon
MOLT-4 leukemia = test system: MOLT-4 leukemia
SK-MEL-2 melanoma = test system: SK-MEL-2 melanoma
RXF 393 renal = test system: RXF 393 renal
MALME-3M melanoma = test system: MALME-3M melanoma
HOP-62 NSCLC = test system: HOP-62 NSCLC
SF-539 CNS = test system: SF-539 CNS
PC-3 prostate = test system: PC-3 prostate
NCI-H522 lung = test system: NCI-H522 lung
SF-295 CNS = test system: SF-295 CNS
MCF7 breast = test system: MCF7 breast
HL-60(TB) leukemia = test system: HL-60(TB) leukemia
A549 NSCLC = test system: A549 NSCLC
OVCAR-3 ovarian = test system: OVCAR-3 ovarian
SK-OV-3 ovarian = test system: SK-OV-3 ovarian
M14 melanoma = test system: M14 melanoma
SK-MEL-5 melanoma = test system: SK-MEL-5 melanoma

CC1(C)C(=O)C2(N)CCC1C2 (stereo not given)
TGI (SNB-19 CNS): > 100 µM | TGI (MDA-MB-435): > 100 µM | TGI (HCT-15 colon): > 100 µM | TGI (SR leukemia): > 100 µM | TGI (MDA-MB-231 breast): > 100 µM | TGI (CCRF-CEM leukemia): > 100 µM | TGI (DU-145 prostate): > 100 µM | TGI (UACC-257 melanoma): > 100 µM | TGI (COLO 205 colon): > 100 µM | TGI (NCI-H226 lung): > 100 µM | TGI (BT-549 breast): > 100 µM | TGI (NCI-H460 lung): > 100 µM | TGI (RPMI-8226 leukemia): > 100 µM | TGI (SK-MEL-28 melanoma): > 100 µM | TGI (CAKI-1 renal): > 100 µM | TGI (HCT-116 colon): > 100 µM | TGI (MDA-N): > 100 µM | TGI (786-0 renal): > 100 µM | TGI (NCI-H23 lung): > 100 µM | TGI (SF-268 CNS): > 100 µM | TGI (LOX IMVI melanoma): > 100 µM | TGI (U251 CNS): > 100 µM | TGI (HCC-2998 colon): > 100 µM | TGI (OVCAR-8 ovarian): > 100 µM | TGI (T-47D breast): > 100 µM | TGI (UACC-62 melanoma): > 100 µM | TGI (SN12C renal): > 100 µM | TGI (UO-31 renal): > 100 µM | TGI (TK-10 renal): > 100 µM | TGI (HOP-92 NSCLC): > 100 µM | TGI (OVCAR-4 ovarian): > 100 µM | TGI (SNB-75 CNS): > 100 µM | TGI (ACHN renal): > 100 µM | TGI (NCI/ADR-RES ovarian): > 100 µM | TGI (KM12 colon): > 100 µM

CCN(CC)C(=O)N1CN(c2ccccc2)C2(CCN(CCCC3(c4ccc(F)cc4)OCCO3)CC2)C1=O
TGI (SNB-19 CNS): 89.7 µM | TGI (MDA-MB-435): 38.9 µM | TGI (HCT-15 colon): 32.3 µM | TGI (HS 578T breast): 37.4 µM | TGI (SR leukemia): 47.5 µM | TGI (CCRF-CEM leukemia): 45.9 µM | TGI (DU-145 prostate): 38.3 µM | TGI (EKVX NSCLC): 90.2 µM | TGI (SW-620 colon): 40.4 µM | TGI (UACC-257 melanoma): 26.3 µM | TGI (COLO 205 colon): 15.2 µM | TGI (NCI-H226 lung): 53.5 µM | TGI (BT-549 breast): 28.9 µM | TGI (RPMI-8226 leukemia): 30.1 µM | TGI (MOLT-4 leukemia): 34.9 µM | TGI (SK-MEL-28 melanoma): 26.7 µM | TGI (CAKI-1 renal): > 100 µM | TGI (SK-MEL-2 melanoma): 33 µM | TGI (HCT-116 colon): 23.9 µM | TGI (RXF 393 renal): 27.8 µM | TGI (MDA-N): 35.7 µM | TGI (786-0 renal): 33.6 µM | TGI (NCI-H23 lung): 36.6 µM | TGI (SF-268 CNS): 45.5 µM | TGI (MALME-3M melanoma): 36.5 µM | TGI (LOX IMVI melanoma): 26.2 µM | TGI (U251 CNS): 30.2 µM | TGI (HCC-2998 colon): 28.7 µM | TGI (OVCAR-8 ovarian): 44.4 µM | TGI (HOP-62 NSCLC): 18.6 µM | TGI (SF-539 CNS): 32 µM | TGI (T-47D breast): > 100 µM | TGI (PC-3 prostate): 34.9 µM | TGI (UACC-62 melanoma): 34.9 µM | TGI (SN12C renal): 32.8 µM | TGI (UO-31 renal): 35.9 µM | TGI (TK-10 renal): 38.7 µM | TGI (NCI-H522 lung): 30.2 µM | TGI (OVCAR-4 ovarian): > 100 µM | TGI (SNB-75 CNS): 45.3 µM | TGI (SF-295 CNS): 41.3 µM | TGI (MCF7 breast): 19.9 µM | TGI (HL-60(TB) leukemia): 27.9 µM | TGI (A549 NSCLC): > 100 µM | TGI (OVCAR-3 ovarian): 31.5 µM | TGI (SK-OV-3 ovarian): 61.5 µM | TGI (NCI/ADR-RES ovarian): 46.4 µM | TGI (M14 melanoma): > 100 µM | TGI (SK-MEL-5 melanoma): 26.4 µM | TGI (KM12 colon): 31.1 µM
